Measured values from patent publication US12473290B2, “Imidazopyridazine compounds useful as modulators of IL-12, IL-23 and/or IFN alpha responses” (BRISTOL-MYERS SQUIBB COMPANY, priority 2019, dated 2025).
pIC50: −log10 of the molar value.

What was measured:
[1] = system: IFNα Kit225 Reporter (Kit225 T cells with a stably-integrated STAT-dependent luciferase reporter, stimulated with IFNα); experiment: Kit225 T Cell Assay, IFNα-stimulated STAT-dependent luciferase reporter; assay type: cell-based; conditions: 200 U/mL human recombinant IFNα, 5-6 hours, luciferase expression
Experimental: (§1) Kit225 T cells with a stably-integrated STAT-dependent luciferase reporter were plated in RPMI (Gibco) containing 10% heat-inactivated FBS (Gibco) and 100 U/mL PenStrep (Gibco). The cells were then stimulated with either 20 ng/mL human recombinant IL-23 or 200 U/mL human recombinant IFNα (PBL InterferonSource) for 5-6 hours. Luciferase expression was measured using the STEADY-GLO® Luciferase Assay System (Promega) according to the manufacturer's instructions. Inhibition data were calculated by comparison to no inhibitor control wells for 0% inhibition and non-stimulated control wells for 100% inhibition. Dose response curves were generated to determine the concentration required to inhibit 50% of cellular response (IC50) as derived by non-linear regression analysis.

[2] = Kit225 T Cell Assay, IL-23-stimulated STAT-dependent luciferase reporter; assay type: cell-based; conditions: Kit225 T cells, 20 ng/mL human recombinant IL-23, 5-6 hours, luciferase expression
Experimental: as §1

Structure (SMILES)	pIC50 [1]	pIC50 [2]
N#Cc1cnc2c(Nc3cccc(N4CCN(CCO)CC4)n3)cc(N[C@@H]3CCCC[C@H]3O)nn12 [Example 55, 6-{[(1R,2R)-2-hydroxycyclohexyl]amino}-8-({6-[4-(2-hydroxyethyl)piperazin-1-yl]pyridin-2-yl}amino)imidazo[1,2-b]pyridazine-3-carbonitrile]	6.21	6.28
N#Cc1cnc2c(Nc3ccc4c(C(F)(F)F)cc(C(F)(F)F)nc4n3)cc(NC34CC5CC(O)(CC(O)(C5)C3)C4)nn12 [Example 19, 8-{[5,7-bis(trifluoromethyl)-1,8-naphthyridin-2-yl]amino}-6-[(3,5-dihydroxyadamantan-1-yl)amino]imidazo[1,2-b]pyridazine-3-carbonitrile]	6.09	6.23
CC(=O)N1[C@H](C)CN(c2cccc(Nc3cc(NC45CC6CC(CC(O)(C6)C4)C5)nn4c(C#N)cnc34)n2)C[C@@H]1C [Example 40, 8-({6-[(3R,5S)-4-acetyl-3,5-dimethylpiperazin-1-yl]pyridin-2-yl}amino)-6-[(3-hydroxyadamantan-1-yl)amino]imidazo[1,2-b]pyridazine-3-carbonitrile]	6.41	6.59
N#Cc1cnc2c(Nc3cccc(-n4cccn4)n3)cc(N[C@@H]3CCCC[C@H]3O)nn12 [Example 61, 6-{[(1R,2R)-2-hydroxycyclohexyl]amino}-8-{[6-(1H-pyrazol-1-yl)pyridin-2-yl]amino}imidazo[1,2-b]pyridazine-3-carbonitrile]	6.35	6.03
CC(C)N1CCN(c2cccc(Nc3cc(N[C@@H]4CCCC[C@H]4O)nn4c(C#N)cnc34)n2)CC1 [Example 54, 6-{[(1R,2R)-2-hydroxycyclohexyl]amino}-8-({6-[4-(propan-2-yl)piperazin-1-yl]pyridin-2-yl}amino)imidazo[1,2-b]pyridazine-3-carbonitrile]	6.06	6.20
CCC1(C)NC(=O)N(c2cccc(Nc3cc(N[C@@H]4CCCC[C@H]4O)nn4c(C#N)cnc34)n2)C1=O (stereo partly drawn) [Example 57, 8-{[6-(4-ethyl-4-methyl-2,5-dioxoimidazolidin-1-yl)pyridin-2-yl]amino}-6-{[(1R,2R)-2-hydroxycyclohexyl]amino}imidazo[1,2-b]pyridazine-3-carbonitrile]	6.12	6.04
COc1cccc2ccc(Nc3cc(NC45CC6CC(O)(CC(F)(C6)C4)C5)nn4c(C#N)cnc34)nc12 (centres unmarked) [Example 22, 6-[(3-fluoro-5-hydroxyadamantan-1-yl)amino]-8-[(8-methoxyquinolin-2-yl)amino]imidazo[1,2-b]pyridazine-3-carbonitrile]	6.07	6.44
CC(C)(O)C(=O)Nc1cccc(Nc2cc(N[C@@H]3CCCC[C@H]3O)nn3c(C#N)cnc23)n1 [Example 9, N-{6-[(3-cyano-6-{[(1R,2R)-2-hydroxycyclohexyl]amino}imidazo[1,2-b]pyridazin-8-yl)amino]pyridin-2-yl}-2-hydroxy-2-methylpropanamide]	6.41	6.66
N#Cc1cnc2c(Nc3cccc(N4CCN(S(=O)(=O)N5CCOCC5)CC4)n3)cc(N[C@@H]3CCCC[C@H]3O)nn12 [Example 39, 6-{[(1R,2R)-2-hydroxycyclohexyl]amino}-8-({6-[4-(morpholine-4-sulfonyl)piperazin-1-yl]pyridin-2-yl}amino)imidazo[1,2-b]pyridazine-3-carbonitrile]	6.10	6.25
COc1ccc(Nc2cc(NC34CC5CC(O)(CC(O)(C5)C3)C4)nn3c(C#N)cnc23)nc1NC(=O)C(C)(C)C [Example 21, N-[6-({3-cyano-6-[(3,5-dihydroxyadamantan-1-yl)amino]imidazo[1,2-b]pyridazin-8-yl}amino)-3-methoxypyridin-2-yl]-2,2-dimethylpropanamide]	6.12	6.37
N#Cc1cnc2c(Nc3ccc(C(=O)N4CCCC4)c(N4CCCC4)n3)cc(N[C@H]3CCCC[C@@H]3O)nn12 [Example 14, 6-{[(1S,2S)-2-hydroxycyclohexyl]amino}-8-{[6-(pyrrolidin-1-yl)-5-(pyrrolidine-1-carbonyl)pyridin-2-yl]amino}imidazo[1,2-b]pyridazine-3-carbonitrile]	6.31	6.18

Now those with a higher pIC50 [1], led by results:

pIC50 [1]	pIC50 [2]	Structure (SMILES)
6.44	6.25	CC1(C)CCCN1C(=O)c1ccc(Nc2cc(N[C@H]3CCCC[C@@H]3O)nn3c(C#N)cnc23)nc1 [Example 11, 8-{[5-(2,2-dimethylpyrrolidine-1-carbonyl)pyridin-2-yl]amino}-6-{[(1S,2S)-2-hydroxycyclohexyl]amino}imidazo[1,2-b]pyridazine-3-carbonitrile]
6.49	6.96	C[C@@H](NC(=O)c1cccc(Nc2cc(NC34CC5CC(CC(O)(C5)C3)C4)nn3c(C#N)cnc23)n1)C(F)(F)F [Example 41, 6-({3-cyano-6-[(3-hydroxyadamantan-1-yl)amino]imidazo[1,2-b]pyridazin-8-yl}amino)-N-[(2R)-1,1,1-trifluoropropan-2-yl]pyridine-2-carboxamide]
6.57	6.82	N#Cc1cnc2c(Nc3cccc(NC(=O)c4ccccc4)n3)cc(N[C@@H]3CCCC[C@H]3O)nn12 [Example 10, N-{6-[(3-cyano-6-{[(1R,2R)-2-hydroxycyclohexyl]amino}imidazo[1,2-b]pyridazin-8-yl)amino]pyridin-2-yl}benzamide]
6.59	6.13	N#Cc1cnc2c(Nc3ccc(C(=O)NCC4CCCO4)c(OCC(F)F)n3)cc(NC3CCOCC3)nn12 (centres unmarked) [Example 45, 6-({3-cyano-6-[(oxan-4-yl)amino]imidazo[1,2-b]pyridazin-8-yl}amino)-2-(2,2-difluoroethoxy)-N-[(oxolan-2-yl)methyl]pyridine-3-carboxamide]
6.80	6.47	N#Cc1cnc2c(Nc3ccc(C(=O)N4CC[C@@H](C#N)C4)c(OCC(F)F)n3)cc(NC3CCOCC3)nn12 [Example 47, (3R)-1-[6-({3-cyano-6-[(oxan-4-yl)amino]imidazo[1,2-b]pyridazin-8-yl}amino)-2-(2,2-difluoroethoxy)pyridine-3-carbonyl]pyrrolidine-3-carbonitrile]
6.85	6.62	N#Cc1cnc2c(Nc3ccc(C(=O)N[C@@H]4CCC[C@@H]4O)cn3)cc(NCC3CC3)nn12 [Example 53, 6-({3-cyano-6-[(cyclopropylmethyl)amino]imidazo[1,2-b]pyridazin-8-yl}amino)-N-[(1R,2S)-2-hydroxycyclopentyl]pyridine-3-carboxamide]
6.96	6.26	N#Cc1cnc2c(Nc3cccc(N4CCOCC4)n3)cc(N[C@@H]3CCCC[C@H]3O)nn12 [Example 65, 6-{[(1R,2R)-2-hydroxycyclohexyl]amino}-8-{[6-(morpholin-4-yl)pyridin-2-yl]amino}imidazo[1,2-b]pyridazine-3-carbonitrile]
7.10	6.85	CC(C)(C)NC(=O)c1ccc(Nc2cc(NCC3CC3)nn3c(C#N)cnc23)nc1 [Example 52, N-tert-butyl-6-({3-cyano-6-[(cyclopropylmethyl)amino]imidazo[1,2-b]pyridazin-8-yl}amino)pyridine-3-carboxamide]
